Assay results taken from PubChem BioAssay (NCI).
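How tested: cells in 96-well plates exposed to compound for 48 hours at five concentrations. At the TGI there is no net growth.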

How the values were obtained:
Test in all cases: NCI tumour cell line growth inhibition, 48 h
[1] = tested on: SR leukemia
[2] = tested on: SN12C renal
[3] = tested on: UACC-257 melanoma
[4] = tested on: CAKI-1 renal
[5] = tested on: NCI-H226 lung
[6] = tested on: HCT-15 colon
[7] = tested on: HOP-62 NSCLC
[8] = tested on: MALME-3M melanoma
[9] = tested on: SF-295 CNS
[10] = tested on: NCI-H23 lung
[11] = tested on: SF-539 CNS
[12] = tested on: UACC-62 melanoma
[13] = tested on: SNB-19 CNS
[14] = tested on: SK-MEL-2 melanoma
[15] = tested on: K-562 leukemia

Row | SMILES | TGI [1] [µM] | TGI [2] [µM] | TGI [3] [µM] | TGI [4] [µM] | TGI [5] [µM] | TGI [6] [µM] | TGI [7] [µM] | TGI [8] [µM] | TGI [9] [µM] | TGI [10] [µM] | TGI [11] [µM] | TGI [12] [µM] | TGI [13] [µM] | TGI [14] [µM] | TGI [15] [µM]
1 | NC(=O)CC1(O)C=CC(=O)C=C1 | > 100 | > 100 | > 100 | > 100 | > 100 | > 100 | > 100 | > 100 | > 100 | > 100 | > 100 | > 100 | > 100 | > 100 | > 100
2 | CCC/C(Cl)=N\OC(=O)Nc1ccc(Br)cc1 | 18.4 | 33.8 | 27 | 5.77 | 44 | 19.9 | 42.6 | 10.8 | 30.2 | 40.6 | 32.9 | 44.7 | > 59.7 | 28.9 | 4.15
3 | O=C(/C=C(\O)C(=O)O)/C=C(\O)c1ccccc1Cl | > 100 | > 100 | > 100 | > 100 | > 100 | > 100 | > 100 | > 100 | > 100 | > 100 | > 100 | > 100 | > 100 | > 100 | > 100
4 | Cc1ccc2nc(CN3CCCCC3)cc(=O)n2c1 | > 100 | > 100 | > 100 | > 100 | > 100 | > 100 | > 100 | > 100 | > 100 | > 100 | > 100 | > 100 | > 100 | > 100 | > 100
5 | COc1ccc2cc(CNCCCN3CCN(CCCNCc4ccc5cc(OC)ccc5c4)CC3)ccc2c1 | 0.658 | 3.11 | 3.86 | 3.2 | 3.69 | 3.01 | 3.13 | 3.14 | 3.34 | 3.5 | 3.39 | 1.36 | 3.18 | 3.42 | 0.366
6 | CC(C)CC(=O)OC[n+]1cccc(-c2c(COC(=O)NC(C)C)c(COC(=O)NC(C)C)c3n2CCC3)c1 | > 100 | > 100 | > 100 | 73.9 | > 100 | > 100 | > 100 | > 100 | > 100 | > 100 | > 100 | > 100 | > 100 | > 100 | > 100
7 | CC1C(c2ccccc2)=CCON1c1ccccc1 (stereo not given) | > 100 | > 100 | > 100 | > 100 | > 100 | > 100 | > 100 | > 100 | > 100 | > 100 | > 100 | > 100 | > 100 | > 100 | > 100
8 | Cc1c(C(=O)Nc2ccc(Cl)c(C(F)(F)F)c2)oc2cc(O)ccc2/c1=N\NC(N)=S | > 100 | > 100 | > 100 | > 100 | > 100 | > 100 | > 100 | > 100 | > 100 | > 100 | > 100 | > 100 | > 100 | > 100 | > 100
9 | COC(=O)C1=C(C(=O)OC)C(C(=O)c2ccccc2)N2N=C(c3ccc(Cl)cc3)C=CC12 (stereo not given) | > 100 | > 100 | > 100 | > 100 | 66.1 | > 100 | > 100 | 83.7 | > 100 | > 100 | > 100 | > 100 | > 100 | > 100 | > 100
10 | O=S(=O)([N-]c1nc2ccccc2nc1-[n+]1ccccc1)c1ccccc1 | 77.3 | > 100 | > 100 | > 100 | > 100 | > 100 | > 100 | > 100 | > 100 | > 100 | > 100 | > 100 | > 100 | > 100 | > 100
11 | COc1c(C(=O)O)cccc1-c1cccc(C(=O)NCCN(CCNC(=O)c2cccc(-c3cccc(C(=O)O)c3OC)c2OC)CCNC(=O)c2cccc(-c3cccc(C(=O)O)c3OC)c2OC)c1OC | 44.1 | 89.9 | > 100 | > 100 | > 100 | > 100 | > 100 | 88.1 | > 100 | > 100 | > 100 | 89.7 | > 100 | > 100 | > 100
12 | CNC(=O)C(C)NC(=O)C(Cc1ccccc1)NC(=O)OC(C)(C)C (stereo not given) | > 100 | > 100 | > 100 | > 100 | > 100 | > 100 | > 100 | > 100 | > 100 | > 100 | > 100 | > 100 | > 100 | > 100 | > 100
13 | COC(=O)C(Cc1ccccc1)C(=O)NC(CNC(=O)OCc1ccccc1)C(=O)OCc1ccccc1 (stereo not given) | > 69.2 | > 100 | 34.7 | > 87.2 | > 80.2 | > 100 | > 100 | 43.2 | > 100 | > 100 | > 100 | 49.3 | > 100 | 97.4 | 45
14 | CC1=CC[C@@]2(C)[C@@H]([C@@H]1C)[C@H]1CC[C@@H]3[C@@]4(C)CC[C@H](O)C(C)(C)[C@@H]4CC[C@@]3(C)[C@]1(C)C[C@@H]2O | 7.34 | > 100 | 34.8 | > 83.2 | > 100 | > 71.6 | 38.6 | > 68.7 | 43.4 | > 55.1 | > 55.7 | > 68.8 | > 66.4 | > 59 | > 100
15 | Cc1ccc(S(=O)(=O)Oc2coc(CO)cc2=O)cc1 | > 85.5 | 25.3 | 43.4 | 10.4 | > 100 | > 49.5 | 34 | 44.5 | 31.3 | 35.3 | 87.8 | 25.3 | 27.8 | 57.6 | > 100
16 | COc1c(C(CC(C)C)OC(C)=O)ccc2c1C(=O)OCc1cc(C)cc(O)c1O2 (stereo not given) | > 100 | 27.2 | 21.6 | 32.2 | 30 | 23.5 | 32.8 | 29.8 | 27.8 | 23.3 | 32.9 | 25.5 | 28.7 | 33.4 | > 100
